# In patent publication US20220305115A1 (JANSSEN SCIENCES IRELAND UNLIMITED COMPANY, priority 2019, published 2022):
# Tests used:
# Assay type in all cases: cell-based
# [1] = Off-target cytotoxicity, galactose-adapted HepG2 cells (Cell Titer Glo, 5 days); conditions: human, galactose-adapted HepG2, five days incubation, intracellular ATP, read-out: CC50 GALHEPG2 CTG 50
# From the text: (§1) To assess potential off-target toxicity of certain compounds disclosed herein, the in vitro cytotoxicity of those compounds was profiled using a panel of 5 cell lines with various tissue origins. Compound cytotoxicity was examined in hepatoma-derived Huh-7 and HepG2 cells, prostate carcinoma-derived PC-3 cells, lymphoma derived MT-4 cells and a normal diploid lung cell line MRC-5. HepG2 and PC-3 cells used were adapted to grow in glucose-free galactose-containing medium. These cells have a relatively higher sensitivity to inhibitors of mitochondrial oxidative phosphorylation compared to the same cells maintained in standard glucose-containing culture medium (Marroquin et al., Toxicol. Sci. 2007; 97 (2):539-47). Cell viability was determined by measuring intracellular ATP levels following five days of continuous incubation with test compounds.
# (§2) The human hepatoma Huh-7 cell line was obtained from ReBLikon GmbH (Mainz, Germany) {20879}. The MT-4 cell line (HTLV-1 transformed, human T lymphoblastoid cells) was obtained from the NIH AIDS Reagent program (Bathesda, Md.). The human hepatoblastoma cell line HepG2, human prostate carcinoma cell line PC-3, and normal fetal lung derived MRC-5 cells were obtained from the American Type Culture Collection (ATCC, Manassas, Va.).
# (§3) Huh-7 cells were maintained in Dulbecco's Modified Eagle Medium (DMEM) supplemented with 10% fetal bovine serum (FBS, Hyclone, Logan, Utah), 1% non-essential amino acids (Gibco, Carlsbad, Calif.). PC-3 and HepG2 cells were adapted to grow in 0.2% galactose-containing, glucose-free Dulbecco's Modified Eagle Medium (DMEM) supplemented with 10% fetal bovine serum (FBS, Hyclone, Logan, Utah), 1% non-essential amino acids (Gibco, Carlsbad, Calif.), 1% Pyruvate (Cellgro), 1% Glutamax (Invitrogen, Carlsbad, Calif.). Galactose-adapted cells were maintained in the same culture medium. MRC-5 cells were maintained in Eagle's Minimum Essential Medium (EMEM) supplemented with 10% fetal bovine serum (FBS, Hyclone, Logan, Utah). MT-4 cells were maintained in RPMI-1640 supplemented with 10% fetal bovine serum (FBS, Hyclone, Logan, Utah). All cell culture media were also supplemented with 100 Units/mL penicillin, 100 μg/mL streptomycin (Gibco).
# (§4) Using a Biotek uFlow Workstation (Biotek, Winooski, Vt.), 1500 HepG2, 1500 PC-3, 500 Huh7 or 1500 MRC-5 cells in 90 μL of culture media were dispensed into each well of black polystyrene tissue culture-treated 384-well plates. Plated cells were incubated for 24 hours in an incubator at 37° C., 5% CO2 and 90% humidity. Compound serial dilutions were performed in 100% DMSO in 384-well polypropylene (high recovery) plates on a Biomek FX Workstation (Beckman Coulter, Fullerton, Calif.). After 3-fold serial dilutions, 0.4 μL of compounds were transferred into 384-well plates containing cells using a Velocity 11 system equipped with a Bravo 384-well pipettor. The DMSO concentration in the final assay plates was 0.44% (v/v). Cells were incubated with compound(s) for five days at 37° C. Puromycin (44 μM final concentration) and DMSO (0.44%, v/v) were used as a positive and negative controls, respectively
# (§5) At the end of the incubation period the cytotoxicity assay was performed as follows: Media from 384-well cell culture plates were aspirated with a Biotek EL405 plate-washer (Biotek) and cells were washed with 100 μL PBS once. Twenty microliters of Cell Titer Glo (Promega, Madison, Wis.) was added to each well of the plates with a Biotek uFlow liquid dispenser. Plates were incubated for 15 minutes at room temperature before luminescence was measured with a Perkin Elmer Envision Plate Reader (Perkin Elmer, Waltham, Mass.).
# (§6) CC50 values were defined as the compound concentration that caused a 50% decrease in luminescence signal, and were calculated by non-linear regression using Pipeline Pilot software by applying a four parameter fit equation (Accelrys, San Diego, Calif.). Individual CC50 values are listed as μM concentrations.
# [2] = Off-target cytotoxicity, galactose-adapted PC-3 cells (Cell Titer Glo, 5 days); conditions: human, galactose-adapted PC-3, five days incubation, intracellular ATP, read-out: CC50 GALFC3 CTG 50
# From the text: as §1, with “These cells have a relatively higher sensitivity to inhibitors of mitochondrial oxidative phosphorylation compared to the same cells maintained in standard glucose-containing culture medium (Marroquin et al., Toxicol. Sci. 2007; 97 (2):539-47).” left out
# as §2, with “The” for “The human hepatoma Huh-7 cell line was obtained from ReBLikon GmbH (Mainz, Germany) {20879}. The”
# as §3, with “MT-4 cells were maintained in RPMI-1640 supplemented with 10% fetal bovine serum (FBS, Hyclone, Logan, Utah).” left out
# as §4, with “C.” for “C. Puromycin (44 μM final concentration) and DMSO (0.44%, v/v) were used as a positive and negative controls, respectively”
# as §5
# [3] = Off-target cytotoxicity, Huh-7 cells (Cell Titer Glo, 5 days); conditions: human, Huh-7 cells; Huh-7, five days incubation, intracellular ATP; read-out: CC50 HEH7 CTG 50
# From the text: as §1, §2, §3, §4, §5, §6
# MRC-5 cells = assay: Off-target cytotoxicity, MRC-5 cells (Cell Titer Glo, 5 days); conditions: MRC-5, five days incubation, intracellular ATP; read-out: CC50 MHCS CTG 50
# From the text: as §1, §2, §3, §4, §5, §6
# [4] = Off-target cytotoxicity, MT-4 cells (Cell Titer Glo, 5 days); conditions: human, MT-4, five days incubation, intracellular ATP, read-out: CC50 (MT4)
# From the text: as §1, with “These cells have a relatively higher sensitivity to inhibitors of mitochondrial oxidative phosphorylation compared to the same cells maintained in standard glucose-containing culture medium (Marroquin et al., Toxicol. Sci. 2007; 97 (2):539-47).” left out
# as §2, with “The” for “The human hepatoma Huh-7 cell line was obtained from ReBLikon GmbH (Mainz, Germany) {20879}. The”
# as §3, with “MT-4 cells were maintained in RPMI-1640 supplemented with 10% fetal bovine serum (FBS, Hyclone, Logan, Utah).” left out
# For the MT-4 cytotoxicity assay, 0.4 μL of serially diluted compounds were added to 40 μl of cell maintenance media in 384-well black, solid bottom plate using a Biomek FX workstation (Beckman Coulter). Two thousand cells in 35 μL were added to each well using a Biotek uFlow Workstation (Biotek). […] Assay plates were incubated for five days at 37° C. in an incubator set at 5% CO2 and 90% humidity. After five days, 22 μL of Cell Titer Glo reagent (Promega) was added to the assay plates with a Biotek uFlow Workstation. Plates were subsequently placed on a Perkin Elmer Envision Plate Reader for five minutes before the luminescence signal was read.
# [5] = Off-target cytotoxicity, MRC-5 cells (Cell Titer Glo, 5 days); conditions: human, MRC-5 cells; MRC-5, five days incubation, intracellular ATP; read-out: CC50 MHCS CTG 50
# From the text: as §1, §2, §3, §4, §5, §6
# Huh-7 cells = assay: Off-target cytotoxicity, Huh-7 cells (Cell Titer Glo, 5 days); conditions: Huh-7, five days incubation, intracellular ATP; read-out: CC50 HEH7 CTG 50
# From the text: as §1, §2, §3, §4, §5, §6
Structure (SMILES),CC50 at 5 days [1] [µM],CC50 at 5 days [2] [µM],CC50 at 5 days [3] [µM],CC50 (MRC-5 cells) [µM],CC50 at 5 days [4] [µM],CC50 at 5 days [5] [µM],CC50 (Huh-7 cells) [µM]
"CCCC[C@@](C)(Nc1nc(N)nc2cc(F)cnc12)C(C)O (single isomer, unassigned) [Compound 95]",28.1,16.8,31.3,44.4,44.1,–,–
"CCCC[C@@](C)(CO)Nc1nc(N)nc2cc(F)cnc12 [Compound 64, (S)-2-((2-amino-7-fluoropyrido[3,2-d]pyrimidin-4-yl)amino)-2-methylhexan-1-ol]",3.56,1.99,10.4,–,6.79,6.97,–
"CCCC[C@](CO)(Nc1nc(N)nc2cccnc12)C(F)(F)F [Compound 93, (R)-2-((2-aminopyrido[3,2-d]pyrimidin-4-yl)amino)-2-(trifluoromethyl)hexan-1-ol]",7.73,3.63,–,–,18.6,38.9,44.4
"CCCC[C@@H](Nc1nc(N)nc2cc(F)cnc12)C(O)CF (stereo partly drawn) [Compound 102, (3R)-3-((2-amino-7-fluoropyrido[3,2-d]pyrimidin-4-yl)amino)-1-fluoroheptan-2-ol]",27.4,19.1,–,44.4,57.1,–,44.4
"CCCC[C@H](CO)Nc1nc(N)nc2cc(F)cnc12 [Compound 44, (R)-2-((2-amino-7-fluoropyrido[3,2-d]pyrimidin-4-yl)amino)hexan-1-ol]",1.07,0.52,9.64,–,1.97,3.72,–
"CCCC[C@H](CO)Nc1nc(N)nc2cccnc12 [Compound 15, (R)-2-((2-aminopyrido[3,2-d]pyrimidin-4-yl)amino)hexan-1-ol]",1.23,0.69,19.7,–,8.62,7.6,–
"CCCC[C@](C)(CO)Nc1nc(N)nc2cc(F)cnc12 [Compound 98, (R)-2-((2-amino-7-fluoropyrido[3,2-d]pyrimidin-4-yl)amino)-2-methylhexan-1-ol]",6.7,4.53,21.9,–,16.2,24.4,–
"CCCC[C@H](CNC(C)=O)Nc1nc(N)nc2cccnc12 [Compound 51, (R)—N-(2-((2-aminopyrido[3,2-d]pyrimidin-4-yl)amino)hexyl)acetamide]",≥ 44.4,37.2,–,44.4,57.1,–,44.4
CCCC[C@](C)(CNC(C)=O)Nc1nc(N)nc2cccnc12 [Compound 61],≥ 44.4,44.4,–,44.4,212,–,44.4
